From PubChem BioAssay (NCI)
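In this assay, cells in 96-well plates receive the compound at five concentrations for 48 hours. Endpoints are linearly interpolated between the surrounding concentrations. At the GI50, growth is halved. At the TGI there is no net growth.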 Calls of active or inactive are those of the source. Rule as the data show it: active = GI50 below about 0.43 µM; inactive = the rest.

Experiments:
Test in all cases: growth of human tumour cells (NCI), 48 h
RPMI-8226 leukemia = test system: RPMI-8226 leukemia
NCI-H23 lung = test system: NCI-H23 lung
SF-539 CNS = test system: SF-539 CNS
HOP-92 NSCLC = test system: HOP-92 NSCLC
MOLT-4 leukemia = test system: MOLT-4 leukemia
A549 NSCLC = test system: A549 NSCLC
TK-10 renal = test system: TK-10 renal
NCI-H226 lung = test system: NCI-H226 lung
T-47D breast = test system: T-47D breast

Compound	GI50 (RPMI-8226 leukemia)	TGI (RPMI-8226 leukemia)	GI50 (NCI-H23 lung)	TGI (NCI-H23 lung)	GI50 (SF-539 CNS)	TGI (SF-539 CNS)	GI50 (HOP-92 NSCLC)	TGI (HOP-92 NSCLC)	GI50 (MOLT-4 leukemia)	TGI (MOLT-4 leukemia)	GI50 (A549 NSCLC)	TGI (A549 NSCLC)	GI50 (TK-10 renal)	TGI (TK-10 renal)	GI50 (NCI-H226 lung)	TGI (NCI-H226 lung)	GI50 (T-47D breast)	TGI (T-47D breast)	outcome (T-47D breast)
CC12CCC3C(CCC4Cc5[nH]c6ccccc6c5CC43C)C1CCC2O (configuration not stated)	1.13 µM	4.52 µM	1.81 µM	> 24.8 µM	1.2 µM	3.77 µM	> 100 µM	> 100 µM	2.55 µM	> 100 µM	2.63 µM	> 100 µM	2.73 µM	> 100 µM	6.08 µM	> 100 µM	2.3 µM	> 100 µM	–
O=[N+]([O-])c1ccc(S(=O)(=O)Cc2ccccc2)c([N+](=O)[O-])c1	–	5.78 µM	–	3.52 µM	–	3.8 µM	–	3.38 µM	–	–	–	33.3 µM	–	3.28 µM	–	43.3 µM	–	4.48 µM	–
Cn1cc(-c2ccc3c(Nc4cccc(NC(=O)Nc5cccc(F)c5)c4)ncnc3c2)cn1	1.53 µM	4.65 µM	2.99 µM	13.4 µM	0.0554 µM	2.21 µM	2.23 µM	9.08 µM	1.95 µM	14.6 µM	1.85 µM	17.9 µM	2.72 µM	10.2 µM	12.1 µM	35.9 µM	1.62 µM	28.7 µM	–
O=C(Nc1ccc(Cl)c(Cl)c1)c1cccc(NC2=C(Cl)C(=O)N(Cc3ccccc3)C2=O)c1	14.4 µM	44.7 µM	37.1 µM	> 100 µM	7.75 µM	38.2 µM	–	–	6.36 µM	78.5 µM	42.9 µM	> 100 µM	> 100 µM	> 100 µM	35.5 µM	> 100 µM	61.2 µM	> 100 µM	–
O=C(Nc1c(O)[nH]c(=S)[nH]c1=O)c1ccccc1F	–	> 100 µM	–	> 100 µM	–	> 100 µM	–	> 100 µM	–	> 100 µM	–	> 100 µM	–	> 100 µM	–	> 100 µM	–	–	–
Cc1ccc(S(=O)(=O)N[C@H](C(=O)O)c2ccccc2)cc1	–	> 100 µM	–	> 100 µM	–	> 100 µM	–	> 100 µM	–	> 100 µM	–	> 100 µM	–	> 100 µM	–	> 100 µM	–	–	–
CCOc1ccccc1NC(=O)CC1C(=O)Nc2ccccc2S1=O (configuration not stated)	–	46.1 µM	–	> 100 µM	–	> 100 µM	–	> 100 µM	–	39.5 µM	–	> 100 µM	–	> 100 µM	–	> 100 µM	–	–	–
CC(=O)N[C@@H](Cc1ccc(OP(=O)(O)O)cc1)C(=O)N[C@H]1CCC(=O)N2CCC[C@@H](C(=O)NCc3ccc(Cl)cc3)N2C1=O	> 25 µM	> 25 µM	> 25 µM	> 25 µM	> 25 µM	> 25 µM	–	–	> 25 µM	> 25 µM	> 25 µM	> 25 µM	> 25 µM	> 25 µM	> 25 µM	> 25 µM	> 25 µM	> 25 µM	–
COc1ccc(OC)c(/C=N/NC(=O)Cc2csc3nc(-c4ccc(Br)cc4)cn23)c1	10.3 µM	> 100 µM	19.3 µM	52.3 µM	11.2 µM	24.4 µM	13.9 µM	35.5 µM	3.47 µM	8.08 µM	11.6 µM	38.7 µM	16.3 µM	51.2 µM	–	–	41.2 µM	> 100 µM	–
O=C(O)C/C(=C\c1ccco1)C(=O)O	–	> 100 µM	–	> 100 µM	–	> 100 µM	–	–	–	> 100 µM	–	> 100 µM	–	> 100 µM	–	> 100 µM	–	> 100 µM	–
CC[C@]1(O)CC(OC2CC(N(C)C)C(O)C(C)O2)c2c(cc3c(c2O)C(=O)c2c(O)cccc2C3=O)[C@@H]1C(=O)OC (some centres not stated)	–	–	–	2.47 µM	–	2.51 µM	–	1.51 µM	–	0.677 µM	–	6.59 µM	–	5.07 µM	–	2.17 µM	–	5.54 µM	–
N#Cc1ccccc1NC(=O)/C(=N\N)C(C(=O)c1ccncc1)C1OC(=O)c2ccccc21 (configuration not stated)	–	> 100 µM	–	> 100 µM	–	> 100 µM	–	> 100 µM	–	> 100 µM	–	> 100 µM	–	> 100 µM	–	> 100 µM	–	–	–
COc1ccccc1/C=C(\C#N)c1ccccc1	–	> 100 µM	–	> 100 µM	–	> 100 µM	–	> 100 µM	–	97.3 µM	–	> 100 µM	–	95.6 µM	–	> 100 µM	–	–	–
O=C1[C@@H]2C(c3ccccc3Br)=NO[C@@H]2C(=O)N1c1ccc(Cc2ccc(N3C(=O)[C@H]4C(c5ccccc5Br)=NO[C@H]4C3=O)cc2)cc1	–	> 100 µM	–	> 100 µM	–	> 100 µM	–	> 100 µM	–	> 100 µM	–	> 100 µM	–	> 100 µM	–	> 100 µM	–	–	–
COc1cc(C2c3[nH]c4ccccc4c3C[C@H]3COC(=O)N23)cc(OC)c1OC (some centres not stated)	< 0.01 µM	< 0.01 µM	< 0.01 µM	–	< 0.01 µM	–	0.0184 µM	> 100 µM	< 0.01 µM	–	0.0233 µM	> 100 µM	< 0.01 µM	> 100 µM	–	0.902 µM	–	–	–
COC(=O)CCC(=O)C(=O)OC	17200 µM	51200 µM	27400 µM	95700 µM	24500 µM	–	19300 µM	82200 µM	34800 µM	–	52900 µM	–	–	–	17300 µM	65100 µM	–	–	inactive
O=C(Nc1ccc(Cl)cc1Cl)C1C(=O)N(c2ccc(Cl)cc2Cl)C(=O)/C1=N\Nc1ccc([N+](=O)[O-])cc1[N+](=O)[O-] (configuration not stated)	–	69.5 µM	–	87.6 µM	–	> 100 µM	–	62.3 µM	–	74.8 µM	–	> 100 µM	–	> 100 µM	–	> 100 µM	–	–	–
CCSCC1CC(O)(c2ccccc2)C(c2ccccc2)C(c2ccc(Cl)cc2)O1 (configuration not stated)	1.56 µM	4.66 µM	1.88 µM	3.94 µM	1.76 µM	3.56 µM	–	–	1.73 µM	9.82 µM	1.61 µM	3.63 µM	2.27 µM	5.4 µM	1.74 µM	3.97 µM	1.42 µM	4.57 µM	–
COC(=O)C1=C(c2ccc(OC)c(OC)c2)OC(c2ccc(OC)c(OC)c2)C1 (configuration not stated)	–	> 100 µM	–	> 100 µM	–	> 100 µM	–	> 100 µM	–	47.5 µM	–	> 100 µM	–	> 100 µM	–	> 100 µM	–	–	–
